According to ChEMBL document CHEMBL1687837, “Roles of residues Cys69, Asn104, Phe160, Gly232, Ser237, and Asp240 in extended-spectrum beta-lactamase Toho-1” (2011):
Values after ≈ are worked out from the molar mass of the structure shown.

How the values were obtained:
Escherichia coli [1] = assay: Activity of Escherichia coli beta-lactamase Toho-1 N104A mutant assessed as compound hydrolysis by spectrophotometry
Escherichia coli [2] = assay: Activity of Escherichia coli beta-lactamase Toho-1 G232A mutant assessed as compound hydrolysis by spectrophotometry
Escherichia coli [3] = assay: Antibacterial activity against Escherichia coli AS226 carrying pBSDS237A mutant after 18 hrs by broth microdilution method; type: functional; conditions: AS226, 18 h
Escherichia coli [4] = assay: Ratio of Kcat to Km for Escherichia coli beta-lactamase Toho-1 D240A mutant assessed as compound hydrolysis by spectrophotometry
Escherichia coli [5] = assay: Antibacterial activity against Escherichia coli AS226 carrying pBSDD240S mutant after 18 hrs by broth microdilution method; type: functional; conditions: AS226, 18 h
Escherichia coli [6] = assay: Activity of Escherichia coli beta-lactamase Toho-1 D240S mutant assessed as compound hydrolysis by spectrophotometry
Escherichia coli [7] = assay: Ratio of Kcat to Km for Escherichia coli beta-lactamase Toho-1 N104D mutant assessed as compound hydrolysis by spectrophotometry
Escherichia coli [8] = assay: Antibacterial activity against Escherichia coli AS226 carrying pBSD-H2 after 18 hrs by broth microdilution method; type: functional; conditions: AS226, 18 h
Escherichia coli [9] = assay: Activity of Escherichia coli beta-lactamase Toho-1 F160T mutant assessed as compound hydrolysis by spectrophotometry
Escherichia coli [10] = assay: Ratio of Kcat to Km for Escherichia coli beta-lactamase Toho-1 […] mutant assessed as compound hydrolysis by spectrophotometry
Escherichia coli [11] = assay: Activity of Escherichia coli beta-lactamase Toho-1 […] mutant assessed as compound hydrolysis by spectrophotometry
Escherichia coli [12] = assay: Antibacterial activity against Escherichia coli AS226 carrying pBSDN104A mutant after 18 hrs by broth microdilution method; type: functional; conditions: AS226, 18 h
Escherichia coli [13] = assay: Ratio of Kcat to Km for Escherichia coli beta-lactamase Toho-1 G232A mutant assessed as compound hydrolysis by spectrophotometry
Escherichia coli [14] = assay: Antibacterial activity against Escherichia coli AS226 carrying pBSDF160T mutant after 18 hrs by broth microdilution method; type: functional; conditions: AS226, 18 h
Escherichia coli [15] = assay: Antibacterial activity against Escherichia coli AS226 carrying pBSDD240A mutant after 18 hrs by broth microdilution method; type: functional; conditions: AS226, 18 h
Escherichia coli [16] = assay: Activity of Escherichia coli beta-lactamase Toho-1 C69A mutant assessed as compound hydrolysis by spectrophotometry
Escherichia coli [17] = assay: Antibacterial activity against Escherichia coli AS226 carrying pBSD6 mutant after 18 hrs by broth microdilution method; type: functional; conditions: AS226, 18 h
Escherichia coli [18] = assay: Activity of Escherichia coli beta-lactamase Toho-1 N104D mutant assessed as compound hydrolysis by spectrophotometry
Escherichia coli [19] = assay: Activity of Escherichia coli beta-lactamase Toho-1 D240A mutant assessed as compound hydrolysis by spectrophotometry
Escherichia coli [20] = assay: Ratio of Kcat to Km for Escherichia coli beta-lactamase Toho-1 D240S mutant assessed as compound hydrolysis by spectrophotometry
Escherichia coli [21] = assay: Ratio of Kcat to Km for Escherichia coli beta-lactamase Toho-1 C69A mutant assessed as compound hydrolysis by spectrophotometry
Escherichia coli [22] = assay: Antibacterial activity against Escherichia coli AS226 carrying pBSDN104D mutant after 18 hrs by broth microdilution method; type: functional; conditions: AS226, 18 h
Escherichia coli [23] = assay: Antibacterial activity against Escherichia coli AS226 carrying pBSDC69A mutant after 18 hrs by broth microdilution method; type: functional; conditions: AS226, 18 h
Escherichia coli [24] = assay: Ratio of Kcat to Km for Escherichia coli beta-lactamase Toho-1 N104A mutant assessed as compound hydrolysis by spectrophotometry
Escherichia coli [25] = assay: Antibacterial activity against Escherichia coli AS226 after 18 hrs by broth microdilution method; type: functional; conditions: AS226, 18 h
Escherichia coli [26] = assay: Ratio of Kcat to Km for Escherichia coli beta-lactamase Toho-1 F160T mutant assessed as compound hydrolysis by spectrophotometry

CC1(C)S[C@@H]2[C@H](NC(=O)[C@H](N)c3ccccc3)C(=O)N2[C@H]1C(=O)O [AMPICILLIN]
Km (Escherichia coli [1]): 38 µM
kcat (Escherichia coli [1]): 27 s⁻¹
Km (Escherichia coli [2]): 35 µM
kcat (Escherichia coli [2]): 37 s⁻¹
MIC (Escherichia coli [3]): 4100 mg/L (≈ 11700 µM)
kcat/Km (Escherichia coli [4]): 1.2 ×10⁶ /s/M
MIC (Escherichia coli [5]): 512 mg/L (≈ 1470 µM)
Km (Escherichia coli [6]): 25 µM
kcat (Escherichia coli [6]): 33 s⁻¹
kcat/Km (Escherichia coli [7]): 1.1 ×10⁶ /s/M
MIC (Escherichia coli [8]): 256 mg/L (≈ 733 µM)
Km (Escherichia coli [9]): 26 µM
kcat (Escherichia coli [9]): 39 s⁻¹
kcat/Km (Escherichia coli [10]): 2.5 ×10⁶ /s/M
Km (Escherichia coli [11]): 120 µM
kcat (Escherichia coli [11]): 310 s⁻¹
MIC (Escherichia coli [12]): 256 mg/L (≈ 733 µM)
kcat/Km (Escherichia coli [13]): 1.1 ×10⁶ /s/M
MIC (Escherichia coli [14]): 512 mg/L (≈ 1470 µM)
MIC (Escherichia coli [15]): 512 mg/L (≈ 1470 µM)
Km (Escherichia coli [16]): 20 µM
kcat (Escherichia coli [16]): 38 s⁻¹
MIC (Escherichia coli [17]): 128 mg/L (≈ 366 µM)
Km (Escherichia coli [18]): 25 µM
kcat (Escherichia coli [18]): 28 s⁻¹
Km (Escherichia coli [19]): 21 µM
kcat (Escherichia coli [19]): 27 s⁻¹
kcat/Km (Escherichia coli [20]): 1.3 ×10⁶ /s/M
kcat/Km (Escherichia coli [21]): 1.9 ×10⁶ /s/M
MIC (Escherichia coli [22]): 1020 mg/L (≈ 2930 µM)
MIC (Escherichia coli [23]): 1020 mg/L (≈ 2930 µM)
kcat/Km (Escherichia coli [24]): 7.2 ×10⁵ /s/M
MIC (Escherichia coli [25]): 1 mg/L (≈ 2.86 µM)
kcat/Km (Escherichia coli [26]): 1.5 ×10⁶ /s/M

C[C@H]1[C@H](NC(=O)/C(=N\OC(C)(C)C(=O)O)c2csc(N)n2)C(=O)N1S(=O)(=O)O [AZTREONAM]
Km (Escherichia coli [1]): 240 µM
kcat (Escherichia coli [1]): 8.6 s⁻¹
Km (Escherichia coli [2]): 64 µM
kcat (Escherichia coli [2]): 6.7 s⁻¹
MIC (Escherichia coli [3]): 128 mg/L (≈ 294 µM)
kcat/Km (Escherichia coli [4]): 1.5 ×10⁵ /s/M
MIC (Escherichia coli [5]): 64 mg/L (≈ 147 µM)
Km (Escherichia coli [6]): 93 µM
kcat (Escherichia coli [6]): 12 s⁻¹
kcat/Km (Escherichia coli [7]): 1.9 ×10⁴ /s/M
MIC (Escherichia coli [8]): 64 mg/L (≈ 147 µM)
Km (Escherichia coli [9]): 69 µM
kcat (Escherichia coli [9]): 6.6 s⁻¹
kcat/Km (Escherichia coli [10]): 2.9 ×10⁵ /s/M
Km (Escherichia coli [11]): 31 µM
kcat (Escherichia coli [11]): 9.1 s⁻¹
MIC (Escherichia coli [12]): 8 mg/L (≈ 18.4 µM)
kcat/Km (Escherichia coli [13]): 1.1 ×10⁵ /s/M
MIC (Escherichia coli [14]): 16 mg/L (≈ 36.7 µM)
MIC (Escherichia coli [15]): 128 mg/L (≈ 294 µM)
Km (Escherichia coli [16]): 58 µM
kcat (Escherichia coli [16]): 4.5 s⁻¹
MIC (Escherichia coli [17]): 2 mg/L (≈ 4.59 µM)
Km (Escherichia coli [19]): 100 µM
kcat (Escherichia coli [19]): 15 s⁻¹
kcat/Km (Escherichia coli [20]): 1.3 ×10⁵ /s/M
kcat/Km (Escherichia coli [21]): 7.7 ×10⁴ /s/M
MIC (Escherichia coli [22]): 1 mg/L (≈ 2.3 µM)
MIC (Escherichia coli [23]): 64 mg/L (≈ 147 µM)
kcat/Km (Escherichia coli [24]): 3.5 ×10⁴ /s/M
MIC (Escherichia coli [25]): < 0.125 mg/L
kcat/Km (Escherichia coli [26]): 9.6 ×10⁴ /s/M

CO/N=C(\C(=O)N[C@@H]1C(=O)N2C(C(=O)O)=C(COC(C)=O)CS[C@H]12)c1csc(N)n1 [CEFOTAXIME]
Km (Escherichia coli [2]): 259 µM
kcat (Escherichia coli [2]): 440 s⁻¹
MIC (Escherichia coli [3]): 32 mg/L (≈ 70.3 µM)
kcat/Km (Escherichia coli [4]): 1.3 ×10⁶ /s/M
MIC (Escherichia coli [5]): 1020 mg/L (≈ 2250 µM)
Km (Escherichia coli [6]): 320 µM
kcat (Escherichia coli [6]): 370 s⁻¹
kcat/Km (Escherichia coli [7]): 2.4 ×10⁵ /s/M
MIC (Escherichia coli [8]): 256 mg/L (≈ 562 µM)
Km (Escherichia coli [9]): 360 µM
kcat (Escherichia coli [9]): 410 s⁻¹
kcat/Km (Escherichia coli [10]): 4.1 ×10⁵ /s/M
Km (Escherichia coli [11]): 230 µM
kcat (Escherichia coli [11]): 94 s⁻¹
MIC (Escherichia coli [12]): 16 mg/L (≈ 35.1 µM)
kcat/Km (Escherichia coli [13]): 1.7 ×10⁶ /s/M
MIC (Escherichia coli [14]): 256 mg/L (≈ 562 µM)
MIC (Escherichia coli [15]): 512 mg/L (≈ 1120 µM)
Km (Escherichia coli [16]): 350 µM
kcat (Escherichia coli [16]): 370 s⁻¹
MIC (Escherichia coli [17]): 2 mg/L (≈ 4.39 µM)
Km (Escherichia coli [19]): 360 µM
kcat (Escherichia coli [19]): 440 s⁻¹
kcat/Km (Escherichia coli [20]): 1.2 ×10⁶ /s/M
kcat/Km (Escherichia coli [21]): 1 ×10⁶ /s/M
MIC (Escherichia coli [22]): 256 mg/L (≈ 562 µM)
MIC (Escherichia coli [23]): 1020 mg/L (≈ 2250 µM)
kcat/Km (Escherichia coli [24]): 1.2 ×10⁵ /s/M
MIC (Escherichia coli [25]): < 0.125 mg/L
kcat/Km (Escherichia coli [26]): 1.2 ×10⁶ /s/M

CO[C@@]1(NC(=O)Cc2cccs2)C(=O)N2C(C(=O)O)=C(COC(N)=O)CS[C@@H]21 [CEFOXITIN]
MIC (Escherichia coli [3]): 2 mg/L (≈ 4.68 µM)
MIC (Escherichia coli [5]): 1 mg/L (≈ 2.34 µM)
MIC (Escherichia coli [8]): 1 mg/L (≈ 2.34 µM)
MIC (Escherichia coli [12]): 1 mg/L (≈ 2.34 µM)
MIC (Escherichia coli [14]): 2 mg/L (≈ 4.68 µM)
MIC (Escherichia coli [15]): 1 mg/L (≈ 2.34 µM)
MIC (Escherichia coli [17]): 2 mg/L (≈ 4.68 µM)
MIC (Escherichia coli [22]): 2 mg/L (≈ 4.68 µM)
MIC (Escherichia coli [23]): 2 mg/L (≈ 4.68 µM)
MIC (Escherichia coli [25]): 1 mg/L (≈ 2.34 µM)

CC(C)(O/N=C(\C(=O)N[C@@H]1C(=O)N2C(C(=O)[O-])=C(C[n+]3ccccc3)CS[C@H]12)c1csc(N)n1)C(=O)O [CEFTAZIDIME]
MIC (Escherichia coli [3]): 0.5 mg/L (≈ 0.915 µM)
MIC (Escherichia coli [5]): 4 mg/L (≈ 7.32 µM)
MIC (Escherichia coli [8]): 0.25 mg/L (≈ 0.457 µM)
MIC (Escherichia coli [12]): < 0.125 mg/L
MIC (Escherichia coli [14]): 1 mg/L (≈ 1.83 µM)
MIC (Escherichia coli [15]): 8 mg/L (≈ 14.6 µM)
MIC (Escherichia coli [17]): 0.25 mg/L (≈ 0.457 µM)
MIC (Escherichia coli [22]): < 0.125 mg/L
MIC (Escherichia coli [23]): 4 mg/L (≈ 7.32 µM)
MIC (Escherichia coli [25]): < 0.125 mg/L
